{
  "source": "the supplement of paper PMC10307832",
  "assay_in_all_cases": "relative viability (nuclei count vs DMSO), 5 days (fraction); higher = more cells survive",
  "key": {"IU1-47 + Navitoclax": {"compound": "CC1=CC(=C(N1C2=CC=C(C=C2)Cl)C)C(=O)CN3CCCCC3 [IU1-47] + CC1(C)CCC(c2ccc(Cl)cc2)=C(CN2CCN(c3ccc(C(=O)NS(=O)(=O)c4ccc(N[C@H](CCN5CCOCC5)CSc5ccccc5)c(S(=O)(=O)C(F)(F)F)c4)cc3)CC2)C1 [Navitoclax] (partner 0.5 µM)", "how_it_was_run": "(§1)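 One day after seeding in 1536-well plates, lung cancer cell lines were dosed by pin tool. Dosing was either single-drug or a fixed anchor-drug dose plus five library-drug doses (not always all listed) in √10 steps. After 5 days, nuclei were stained in one fix-and-stain step and counted on 4× images, and relative viability is the nuclei count of treated wells over that of vehicle wells, given as the median of duplicate plates.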"}, "IU1-47 + OSI-027": {"compound": "CC1=CC(=C(N1C2=CC=C(C=C2)Cl)C)C(=O)CN3CCCCC3 [IU1-47] + COc1cccc2cc(-c3nc([C@H]4CC[C@H](C(=O)O)CC4)n4ncnc(N)c34)[nH]c12 [OSI-027] (partner 0.5 µM)", "how_it_was_run": "as §1"}, "FG-4592 + Navitoclax": {"compound": "Cc1nc(C(=O)NCC(=O)O)c(O)c2ccc(Oc3ccccc3)cc12 [FG-4592] + CC1(C)CCC(c2ccc(Cl)cc2)=C(CN2CCN(c3ccc(C(=O)NS(=O)(=O)c4ccc(N[C@H](CCN5CCOCC5)CSc5ccccc5)c(S(=O)(=O)C(F)(F)F)c4)cc3)CC2)C1 [Navitoclax] (partner 0.5 µM)", "how_it_was_run": "as §1"}, "FG-4592 + Lapatinib": {"compound": "Cc1nc(C(=O)NCC(=O)O)c(O)c2ccc(Oc3ccccc3)cc12 [FG-4592] + CS(=O)(=O)CCNCc1ccc(-c2ccc3ncnc(Nc4ccc(OCc5cccc(F)c5)c(Cl)c4)c3c2)o1 [Lapatinib] (partner 2 µM)", "how_it_was_run": "as §1"}},
  "data": [
    {"cell line": "UMC-11", "values": [
      {"measurement": "relative viability", "setting": "IU1-47 + Navitoclax; first compound 0.08 µM", "value": 0.297},
      {"measurement": "relative viability", "setting": "IU1-47 + Navitoclax; first compound 0.253 µM", "value": 0.315},
      {"measurement": "relative viability", "setting": "IU1-47 + Navitoclax; first compound 0.8 µM", "value": 0.329},
      {"measurement": "relative viability", "setting": "IU1-47 + Navitoclax; first compound 2.53 µM", "value": 0.349},
      {"measurement": "relative viability", "setting": "IU1-47 + Navitoclax; first compound 8 µM", "value": 0.313},
      {"measurement": "relative viability", "setting": "IU1-47 + OSI-027; first compound 0.08 µM", "value": 0.498},
      {"measurement": "relative viability", "setting": "IU1-47 + OSI-027; first compound 0.253 µM", "value": 0.43},
      {"measurement": "relative viability", "setting": "IU1-47 + OSI-027; first compound 0.8 µM", "value": 0.523},
      {"measurement": "relative viability", "setting": "IU1-47 + OSI-027; first compound 2.53 µM", "value": 0.611},
      {"measurement": "relative viability", "setting": "IU1-47 + OSI-027; first compound 8 µM", "value": 0.465},
      {"measurement": "relative viability", "setting": "FG-4592 + Navitoclax; first compound 0.08 µM", "value": 0.391},
      {"measurement": "relative viability", "setting": "FG-4592 + Navitoclax; first compound 0.253 µM", "value": 0.321},
      {"measurement": "relative viability", "setting": "FG-4592 + Navitoclax; first compound 0.8 µM", "value": 0.29},
      {"measurement": "relative viability", "setting": "FG-4592 + Navitoclax; first compound 2.53 µM", "value": 0.312},
      {"measurement": "relative viability", "setting": "FG-4592 + Navitoclax; first compound 8 µM", "value": 0.274},
      {"measurement": "relative viability", "setting": "FG-4592 + Lapatinib; first compound 0.08 µM", "value": 0.948},
      {"measurement": "relative viability", "setting": "FG-4592 + Lapatinib; first compound 0.253 µM", "value": 0.955},
      {"measurement": "relative viability", "setting": "FG-4592 + Lapatinib; first compound 0.8 µM", "value": 0.8},
      {"measurement": "relative viability", "setting": "FG-4592 + Lapatinib; first compound 2.53 µM", "value": 0.936},
      {"measurement": "relative viability", "setting": "FG-4592 + Lapatinib; first compound 8 µM", "value": 0.822}
    ]}
  ]
}
